The values below come from patent publication US20120083522A1, “MODULATION OF INFLAMMATORY RESPONSES BY FACTOR XI” (Isis Pharmaceuitcals, inc., priority 2009, published 2012).

In the oligonucleotide strings, read from the 5' end, every base follows the letter of its sugar. An asterisk marks phosphorothioate; unmarked linkages are phosphodiester. Other units and linkages are bracketed, terminal groups are in braces. A string of capitals states the bases alone. e = 2'-O-(2-methoxyethyl) (MOE); [5mC] = 5-methylcytosine; d = 2'-deoxy (DNA)

The test system of this data set is human Factor XI mRNA. The data set is described as follows: Antisense inhibition in HepG2 cells by microwalk gapmers, 8,000 nM, electroporation (Example 14). It counts as cell-based. The conditions noted are these: HepG2 cells, 8,000 nM. The procedure: These microwalk gapmers were tested in vitro. Cultured HepG2 cells at a density of 20,000 cells per well were transfected using electroporation with 8,000 nM antisense oligonucleotide. After a treatment period of approximately 24 hours, RNA was isolated from the cells and Factor XI mRNA levels were measured by quantitative real-time PCR. Factor XI mRNA levels were adjusted according to total RNA content, as measured by RIBOGREEN. Results are presented as percent inhibition of Factor XI, relative to untreated control cells.
The chimeric antisense oligonucleotides in Table 51 were designed as 5-10-5 MOE, 5-8-5 and 6-8-6 MOE gapmers. The first two listed gapmers in Table 51 are the original gapmers (ISIS 416850 and ISIS 416858) from which ISIS 445493-445543 were designed via microwalk, and are designated by an asterisk. The 5-10-5 gapmers are 20 nucleotides in length, wherein the central gap segment is comprised of ten 2′-deoxynucleotides and is flanked on both sides (in the 5′ and 3′ directions) by wings comprising five nucleotides each. The 5-8-5 gapmers are 18 nucleotides in length, wherein the central gap segment is comprised of eight 2′-deoxynucleotides and is flanked on both sides (in the 5′ and 3′ directions) by wings comprising five nucleotides each. The 6-8-6 gapmers are 20 nucleotides in length, wherein the central gap segment is comprised of eight 2′-deoxynucleotides and is flanked on both sides (in the 5′ and 3′ directions) by wings comprising six nucleotides each. For each of the motifs (5-10-5, 5-8-5 and 6-8-6), each nucleotide in the 5′ wing segment and each nucleotide in the 3′ wing segment has a 2′-MOE modification. The internucleoside linkages throughout each gapmer are phosphorothioate (P═S) linkages. All cytidine residues throughout each gapmer are 5-methylcytidines. “Human Target start site” indicates the 5′-most nucleotide to which the gapmer is targeted in the human sequence. “Human Target stop site” indicates the 3′-most nucleotide to which the gapmer is targeted in the human sequence. Each gapmer listed in Table 51 is targeted to SEQ ID NO: 1 (GENBANK Accession No. NM_000128.3). Each gapmer is Table 51 is also fully cross-reactive with the rhesus monkey Factor XI gene sequence, designated herein as SEQ ID NO: 274 (exons 1-15 GENBANK Accession No. NW—001118167.1). ‘Rhesus monkey start site’ indicates the 5′-most nucleotide to which the gapmer is targeted in the rhesus monkey sequence. ‘Rhesus monkey stop site’ indicates the 3′-most nucleotide to which the gapmer is targeted to the rhesus monkey sequence.
As to “445524 (antisense eG*eT*eG*e[5mC]*eA*d[5mC]*dA*dG*dT*dT*dT*d[5mC]*dT*eG*eG*e[5mC]*eA*eG) [compound 445524]”, the “Percent inhibition of human Factor XI mRNA levels” value (“Percent inhibition” for short) worked out at 75%. As to “445494 (antisense CACAGTTTCTGGCAGGCCTC; 6-8-6 gapmer chemistry, chemistry not fully specified) [compound 445494]”, the “Percent inhibition” value came to 85%. Next, “445530 (antisense eG*e[5mC]*eA*eT*eT*dG*dG*dT*dG*d[5mC]*dA*d[5mC]*dA*eG*eT*eT*eT*e[5mC]) [compound 445530]”: 83%; “445542 (antisense eT*eG*eG*e[5mC]*eA*dG*d[5mC]*dG*dG*dA*d[5mC]*dG*dG*e[5mC]*eA*eT*eT*eG) [compound 445542]”: 83%; “445539 (antisense e[5mC]*eA*eG*e[5mC]*eG*dG*dA*d[5mC]*dG*dG*d[5mC]*dA*dT*eT*eG*eG*eT*eG) [compound 445539]”: 79%.

In the case of “445515 (antisense eT*eG*eG*e[5mC]*eA*eG*d[5mC]*dG*dG*dA*d[5mC]*dG*dG*d[5mC]*eA*eT*eT*eG*eG*eT) [compound 445515]”, the “Percent inhibition” value stood at 75%.

Regarding “445520 (antisense eA*e[5mC]*eA*eG*eT*dT*dT*d[5mC]*dT*dG*dG*d[5mC]*dA*eG*eG*e[5mC]*e[5mC]*eT) [compound 445520]”, the “Percent inhibition” value came to 82%. The figure for “445501 (antisense ATTGGTGCACAGTTTCTGGC; 6-8-6 gapmer chemistry, chemistry not fully specified) [compound 445501]” is 83%; for “445538 (antisense eA*eG*e[5mC]*eG*eG*dA*d[5mC]*dG*dG*d[5mC]*dA*dT*dT*eG*eG*eT*eG*e[5mC]) [compound 445538]” it is 80%; for “445529 (antisense e[5mC]*eA*eT*eT*eG*dG*dT*dG*d[5mC]*dA*d[5mC]*dA*dG*eT*eT*eT*e[5mC]*eT) [compound 445529]” it is 85%. Next, “445518 (antisense eA*eG*eT*eT*eT*d[5mC]*dT*dG*dG*d[5mC]*dA*dG*dG*e[5mC]*e[5mC]*eT*e[5mC]*eG) [compound 445518]”: 75%; “445500 (antisense TTGGTGCACAGTTTCTGGCA; 6-8-6 gapmer chemistry, chemistry not fully specified) [compound 445500]”: 81%; “445537 (antisense eG*e[5mC]*eG*eG*eA*d[5mC]*dG*dG*d[5mC]*dA*dT*dT*dG*eG*eT*eG*e[5mC]*eA) [compound 445537]”: 78%. The figure for “445512 (antisense e[5mC]*eA*eG*e[5mC]*eG*eG*dA*d[5mC]*dG*dG*d[5mC]*dA*dT*dT*eG*eG*eT*eG*e[5mC]*eA) [compound 445512]” is 79%; for “445502 (antisense e[5mC]*eA*eT*eT*eG*eG*dT*dG*d[5mC]*dA*d[5mC]*dA*dG*dT*eT*eT*e[5mC]*eT*eG*eG) [compound 445502]” it is 83%. For the substance “445523 (antisense eT*eG*e[5mC]*eA*e[5mC]*dA*dG*dT*dT*dT*d[5mC]*dT*dG*eG*e[5mC]*eA*eG*eG) [compound 445523]”, the “Percent inhibition” value was found to be 73%.

Consider “445525 (antisense eG*eG*eT*eG*e[5mC]*dA*d[5mC]*dA*dG*dT*dT*dT*d[5mC]*eT*eG*eG*e[5mC]*eA) [compound 445525]”, for which the “Percent inhibition” value turned out to be 85%. Next, “445517 (antisense eA*e[5mC]*eT*eG*eG*e[5mC]*dA*dG*d[5mC]*dG*dG*dA*d[5mC]*dG*eG*e[5mC]*eA*eT*eT*eG) [compound 445517]”: 74%; “445527 (antisense eT*eT*eG*eG*eT*dG*d[5mC]*dA*d[5mC]*dA*dG*dT*dT*eT*e[5mC]*eT*eG*eG) [compound 445527]”: 70%. With “445495 (antisense GCACAGTTTCTGGCAGGCCT; 6-8-6 gapmer chemistry, chemistry not fully specified) [compound 445495]”, the “Percent inhibition” value was found to be 89%. On to “445496 (antisense TGCACAGTTTCTGGCAGGCC; 6-8-6 gapmer chemistry, chemistry not fully specified) [compound 445496]”, for which the “Percent inhibition” value came out at 87%. Next, “445528 (antisense eA*eT*eT*eG*eG*dT*dG*d[5mC]*dA*d[5mC]*dA*dG*dT*eT*eT*e[5mC]*eT*eG) [compound 445528]”: 73%; “445511 (antisense eA*eG*e[5mC]*eG*eG*eA*d[5mC]*dG*dG*d[5mC]*dA*dT*dT*dG*eG*eT*eG*e[5mC]*eA*e[5mC]) [compound 445511]”: 77%; “445516 (antisense e[5mC]*eT*eG*eG*e[5mC]*eA*dG*d[5mC]*dG*dG*dA*d[5mC]*dG*dG*e[5mC]*eA*eT*eT*eG*eG) [compound 445516]”: 79%. Next, “445497 (antisense GTGCACAGTTTCTGGCAGGC; 6-8-6 gapmer chemistry, chemistry not fully specified) [compound 445497]”: 81%; “445541 (antisense eG*eG*e[5mC]*eA*eG*d[5mC]*dG*dG*dA*d[5mC]*dG*dG*d[5mC]*eA*eT*eT*eG*eG) [compound 445541]”: 80%; “445514 (antisense eG*eG*e[5mC]*eA*eG*e[5mC]*dG*dG*dA*d[5mC]*dG*dG*d[5mC]*dA*eT*eT*eG*eG*eT*eG) [compound 445514]”: 81%. The figure for “445536 (antisense e[5mC]*eG*eG*eA*e[5mC]*dG*dG*d[5mC]*dA*dT*dT*dG*dG*eT*eG*e[5mC]*eA*e[5mC]) [compound 445536]” is 82%. Turning to “445521 (antisense e[5mC]*eA*e[5mC]*eA*eG*dT*dT*dT*d[5mC]*dT*dG*dG*d[5mC]*eA*eG*eG*e[5mC]*e[5mC]) [compound 445521]”, the “Percent inhibition” value came to 87%.

With “445534 (antisense eG*eA*e[5mC]*eG*eG*d[5mC]*dA*dT*dT*dG*dG*dT*dG*e[5mC]*eA*e[5mC]*eA*eG) [compound 445534]”, the “Percent inhibition” value is recorded as 82%. Next, “445543 (antisense e[5mC]*eT*eG*eG*e[5mC]*dA*dG*d[5mC]*dG*dG*dA*d[5mC]*dG*eG*e[5mC]*eA*eT*eT) [compound 445543]”: 74%; “445540 (antisense eG*e[5mC]*eA*eG*e[5mC]*dG*dG*dA*d[5mC]*dG*dG*d[5mC]*dA*eT*eT*eG*eG*eT) [compound 445540]”: 74%.

On to “445513 (antisense eG*e[5mC]*eA*eG*e[5mC]*eG*dG*dA*d[5mC]*dG*dG*d[5mC]*dA*dT*eT*eG*eG*eT*eG*e[5mC]) [compound 445513]”, for which the “Percent inhibition” value was 85%. The figure for “445519 (antisense e[5mC]*eA*eG*eT*eT*dT*d[5mC]*dT*dG*dG*d[5mC]*dA*dG*eG*e[5mC]*e[5mC]*eT*e[5mC]) [compound 445519]” is 81%; for “445509 (antisense e[5mC]*eG*eG*eA*e[5mC]*eG*dG*d[5mC]*dA*dT*dT*dG*dG*dT*eG*e[5mC]*eA*e[5mC]*eA*eG) [compound 445509]” it is 84%; for “445510 (antisense eG*e[5mC]*eG*eG*eA*e[5mC]*dG*dG*d[5mC]*dA*dT*dT*dG*dG*eT*eG*e[5mC]*eA*e[5mC]*eA) [compound 445510]” it is 88%. Next, “445535 (antisense eG*eG*eA*e[5mC]*eG*dG*d[5mC]*dA*dT*dT*dG*dG*dT*eG*e[5mC]*eA*e[5mC]*eA) [compound 445535]”: 83%. Regarding “445499 (antisense TGGTGCACAGTTTCTGGCAG; 6-8-6 gapmer chemistry, chemistry not fully specified) [compound 445499]”, the “Percent inhibition” value is recorded as 75%.
